From ChEMBL document CHEMBL6087390, “Pyridine and Pyrimidine hybrids as privileged scaffolds in antimalarial drug discovery: A recent development” (Bioorg Med Chem Lett, 2024)
Values after ≈ are worked out from the molar mass of the structure shown. Each block holds one molecule with its values, some of them ahead of it.

How the values were obtained:
HepG2 [1] = experiment: Cytotoxicity against human HepG2 cells assessed as reduction in cell viability measured for 48 hrs by SRB assay; type: functional
Plasmodium falciparum [2] = type: functional, organism-based; conditions: W2
Plasmodium falciparum [3] = experiment: Antiplasmodial activity against Plasmodium falciparum K1; type: functional, organism-based
[4] = Cytotoxicity against human MRC5 cells assessed as inhibition of cell growth incubated for 72 hrs by MTT assay; type: toxicity, cell-based
Plasmodium falciparum [5] = experiment: microbe, parasite or virus in culture; conditions: 3D7, 48 h
Plasmodium falciparum [6] = experiment: Antiplasmodial activity against Plasmodium falciparum Dd2 assessed as reduction in parasite growth measured after 72 hrs by SYBR Green 1 staining based assay; type: functional, organism-based; conditions: Dd2, 72 h
Plasmodium falciparum [7] = experiment: microbe, parasite or virus in culture; conditions: 3D7
[8] = Cytotoxicity against african green monkey Vero cells assessed as cell viability measured after 48 hrs by MTT assay; type: toxicity, cell-based, Chlorocebus sabaeus; conditions: chlorocebus sabaeus, time 48 hrs
Plasmodium falciparum [9] = experiment: Antimalarial activity against Plasmodium falciparum 3D7 assessed as reduction in malarial growth measured after 48 hrs by SYBR green dye based analysis; type: functional, organism-based; conditions: 3D7, 48 h
Plasmodium falciparum [10] = experiment: Antimalarial activity against Plasmodium falciparum RKL9; type: functional, organism-based
Plasmodium falciparum [11] = experiment: microbe, parasite or virus in culture; conditions: 3D7, 72 h
Plasmodium falciparum [12] = experiment: Antiplasmodial activity against multidrug resistant Plasmodium falciparum K1 assessed as reduction in parasite growth by [3H]-hypoxanthine incorporation assay; type: functional, organism-based
HepG2 [13] = experiment: Cytotoxicity against human HepG2 cells assessed as reduction in cell viability measured for 48 hrs by MTT assay; type: functional
Plasmodium falciparum [14] = experiment: Antimalarial activity against CQ-resistant Plasmodium falciparum Dd2; type: functional, organism-based

Compound: O=C(C(c1cccnc1)N(Cc1cccc(C(F)(F)F)c1)C1CC1)N1CCCCC1 (stereo not drawn)
- CC50 (HepG2 [1]): > 20 µM

Compound: Cc1ccc(S(=O)(=O)NCCCCNc2ncnc3c2cnn3-c2ccc(F)cc2)cc1
- IC50 (Plasmodium falciparum [2]): 5.13 µM

- IC50 (Plasmodium falciparum [3]): 2.24 µM
Compound: O=c1n(-c2cccc(Cl)c2)nc2c(S(=O)(=O)N3CCCCC3)cccn12
- IC50 at 72 h [4]: > 64 µM

- IC50 (Plasmodium falciparum [3]): 27.8 µM
Compound: O=C1CCCN1c1ccc(-n2nc3c(S(=O)(=O)N4CCOCC4)cccn3c2=O)cc1
- IC50 at 72 h [4]: > 64 µM

- IC50 (Plasmodium falciparum [5]): 0.07 µg/mL (≈ 0.153 µM)
Compound: Cc1nn(-c2ccccc2)c(-n2ccnc2)c1-c1cc(-c2cc[nH]c2)nc2nc3ccccc3n12

Compound: NCCCCNc1ncnc2c1cnn2-c1ccc(Cl)cc1
- IC50 (Plasmodium falciparum [2]): 13.2 µM

Compound: FC(F)(F)c1cccc(CN(C2CC2)C(c2cccnc2)c2nnnn2C2CC2)c1 (stereo not drawn)
- EC50 (Plasmodium falciparum [6]): 3 µM

- IC50 (Plasmodium falciparum [7]): 62 µM
Compound: COc1ccc(-n2cc(-c3cncc4ccccc34)nn2)cn1

- IC50 (Plasmodium falciparum [7]): 20.2 µM
Compound: O=C(N/N=C/c1cnn(-c2ccccc2)n1)c1ccncc1

Compound: CCc1ccccc1N(C)C(=O)C(c1cccnc1)N(Cc1cccc(C(F)(F)F)c1)C1CC1 (stereo not drawn)
- CC50 (HepG2 [1]): > 30 µM

- IC50 (Plasmodium falciparum [7]): 59.1 µg/mL
Compound: Cc1cc(=O)oc2cc(OCc3cn(-c4ccc(S(=O)(=O)N5CCN(c6ccccn6)CC5)cc4)nn3)c(Cl)cc12

Compound: CC(C)=CCC1=C(OCc2cn(-c3cccnc3)nn2)C(=O)c2ccccc2C1=O
- CC50 at 48 h [8]: 1030 µM

Compound: CCc1nnc2ccc(S(=O)(=O)N(Cc3cccc(F)c3)c3ccc(OC)cc3)cn12
- IC50 at 72 h [4]: 18.2 µM

- IC50 (Plasmodium falciparum [7]): 14.5 µM
Compound: O=C(N/N=C/c1cn(-c2ccc(Cl)cc2)nn1)c1ccncc1

- IC50 (Plasmodium falciparum [10]): 1.7 µg/mL (≈ 4.19 µM)
Compound: Cc1ccc(-c2nn(-c3ccccc3)cc2/C=C/c2nnc(-c3ccncc3)o2)cc1
- IC50 (Plasmodium falciparum [9]): 0.4 µg/mL

- IC50 (Plasmodium falciparum [7]): 0.004 µM
Compound: CC/C=C\C/C=C\C/C=C\C/C=C\C/C=C\C/C=C\CCC(=O)O [DOCONEXENT]

- IC50 (Plasmodium falciparum [10]): 0.8 µg/mL (≈ 2.04 µM)
Compound: C(=C\c1cn(-c2ccccc2)nc1-c1ccccc1)/c1nnc(-c2ccncc2)o1
- IC50 (Plasmodium falciparum [9]): 0.5 µg/mL

- IC50 (Plasmodium falciparum [3]): 0.352 µM
- IC50 (Plasmodium falciparum [11]): 0.46 µM
Compound: CC(C)CC(CN1CCN(c2ncccn2)CC1)Nc1ccnc2cc(Cl)ccc12 (stereo not drawn)

- IC50 (Plasmodium falciparum [5]): 1.84 µg/mL (≈ 3.82 µM)
Compound: Cc1ccc(-c2cc(-c3c(C)nn(-c4ccccc4)c3-n3ccnc3)n3c(n2)nc2ccccc23)cc1

- IC50 (Plasmodium falciparum [7]): 1.85 µg/mL
Compound: Cc1n[nH]c2c1C(c1ccc(Br)cc1)c1c(nc3oc(=O)c(C#N)c(N)c3c1N)O2 (stereo not drawn)

- IC50 (Plasmodium falciparum [3]): 0.277 µM
- IC50 (Plasmodium falciparum [11]): 0.108 µM
Compound: Clc1ccc2c(NCCN3CCN(c4ncccn4)CC3)ccnc2c1

- IC50 (Plasmodium falciparum [10]): 2.9 µg/mL (≈ 6.33 µM)
- IC50 (Plasmodium falciparum [5]): 6.3 µg/mL (≈ 13.7 µM)
Compound: COc1cc(-c2cc(-c3cc(Cl)sc3Cl)nc(N)n2)ccc1OCc1ccccc1

Compound: CC(C)=CCC1=C(OCc2cn(Cc3ccccn3)nn2)C(=O)c2ccccc2C1=O
- CC50 at 48 h [8]: 658 µM

Compound: Cc1ccccc1N(C)C(=O)C(c1cccnc1)N(Cc1cccc(OC(F)(F)F)c1)C1CC1 (stereo not drawn)
- CC50 (HepG2 [1]): > 30 µM

- IC50 (Plasmodium falciparum [10]): 3.2 µg/mL (≈ 8.57 µM)
- IC50 (Plasmodium falciparum [5]): 4.4 µg/mL (≈ 11.8 µM)
Compound: COc1ccc(-c2cc(-c3ccco3)nc(N)n2)cc1OCc1ccccc1

- IC50 (Plasmodium falciparum [7]): 1.48 µg/mL
Compound: Cc1n[nH]c2c1C(c1ccc(F)cc1)c1c(nc3oc(=O)c(C#N)c(N)c3c1N)O2 (stereo not drawn)

Compound: CCc1ccccc1N(C)C(=O)C(c1cncnc1)N(Cc1cccc(C(F)(F)F)c1)C1CC1 (stereo not drawn)
- EC50 (Plasmodium falciparum [12]): 0.57 µM
- CC50 (HepG2 [13]): > 30 µM

- IC50 (Plasmodium falciparum [10]): 5.4 µg/mL (≈ 13.8 µM)
- IC50 (Plasmodium falciparum [5]): 12.2 µg/mL (≈ 31.2 µM)
Compound: COc1cc(-c2cc(-c3ccco3)nc(S)n2)ccc1OCc1ccccc1

Compound: COc1ccc2nc(/C=C/c3ccncc3)ccc2c1
- IC50 (Plasmodium falciparum [14]): > 10 µM

- IC50 (Plasmodium falciparum [7]): 46 µg/mL
Compound: O=S(=O)(c1ccc(-n2cc(COc3ccc(Br)cc3)nn2)cc1)N1CCN(c2ccccn2)CC1

Compound: CC(C)=CCC1=C(O)C(=O)c2ccccc2C1=O [LAPACHOL]
- CC50 at 48 h [8]: > 4130 µM

- IC50 (Plasmodium falciparum [10]): 2 µg/mL (≈ 5.12 µM)
- IC50 (Plasmodium falciparum [5]): 5.1 µg/mL (≈ 13.1 µM)
Compound: COc1ccc(-c2cc(-c3ccco3)nc(S)n2)cc1OCc1ccccc1

Compound: Cc1cc(C)nc(NS(=O)(=O)c2ccc(-n3cc(COc4ccc5ccc(=O)oc5c4)nn3)cc2)n1
- IC50 (Plasmodium falciparum [9]): > 79.4 µM

- IC50 (Plasmodium falciparum [10]): 2.4 µg/mL (≈ 5.24 µM)
- IC50 (Plasmodium falciparum [5]): 5.4 µg/mL (≈ 11.8 µM)
Compound: COc1ccc(-c2cc(-c3cc(Cl)sc3Cl)nc(N)n2)cc1OCc1ccccc1

Compound: COc1ccc2nc(/C=C/c3ccncc3)cc(NC3CCCCC3)c2c1
- IC50 (Plasmodium falciparum [14]): 0.27 µM

Compound: Cc1ccc(-n2ncc3c(NCCCCNS(=O)(=O)c4ccc(C)cc4)ncnc32)cc1
- IC50 (Plasmodium falciparum [2]): 12.2 µM

Compound: O=S(=O)(NCCCCNc1ncnc2c1cnn2-c1ccc(Cl)cc1)c1ccc(F)cc1
- IC50 (Plasmodium falciparum [2]): 43.4 µM

Compound: CCCN(C(c1cncnc1)c1nnnn1-c1ccccc1C)C1(c2cccc(C(F)(F)F)c2)CC1 (stereo not drawn)
- CC50 (HepG2 [1]): 13 µM

- IC50 (Plasmodium falciparum [7]): > 73.5 µg/mL
Compound: O=c1ccc2ccc(OCc3cn(-c4ccc(S(=O)(=O)N5CCN(c6ccccn6)CC5)cc4)nn3)cc2o1

Compound: COc1ccc2nc(/C=C/c3ccncc3)cc(N3CCCC3)c2c1
- IC50 (Plasmodium falciparum [14]): 0.36 µM

Compound: Cc1cc(C)nc(NS(=O)(=O)c2ccc(-n3cc(COc4cc5oc(=O)cc(C)c5cc4Cl)nn3)cc2)n1
- IC50 (Plasmodium falciparum [9]): 8.96 µM
